From patent publication US20090181898A1, “ABUSE-RESISTANT A[…]” (SHIRE LLC, priority 2002, published 2009)
Where a name gives a salt, the structure may show the parent alone.

Columns and labels:
[1] = Oral bioavailability of peptide amphetamine conjugates (HCl salts, ELISA); details: rats
[2] = Intranasal bioavailability of peptide amphetamine conjugates (HCl salts, ELISA); details: for Percent AUC (bioavailability relative to Amphetamine) / Percent Cmax (relative to Amphetamine): Intranasal, rats
[3] = Kitchen tests: water, acid (vinegar), base (baking powder, baking soda), boiling; type: physicochemical; details: for free amphetamine released: heated to boiling for 20-60 minutes
Experimental: “Kitchen tests” were performed in anticipation of attempts by illicit chemists to release free amphetamine from the amphetamine conjugate.

[4] = Intravenous bioavailability of peptide amphetamine conjugates (HCl salts, ELISA); details: rats
[5] = Oral bioavailability at escalating doses (LC/MS/MS); details: rat, oral
[6] = system: rats; details: cited from earlier work
[7] = system: rats; experiment: Single oral dose toxicity; type: in vivo, Sprague Dawley rats; details: rat, single oral dose
Experimental: Three male and three female Sprague Dawley rats per group were given a single oral administration of L-lysine-d-amphetamine at 0.1, 1.0, 10, 60, 100, or 1000 mg/kg (Table 53).
Animals found dead, or sacrificed moribund were necropsied and discarded.

[8] = Stability under basic conditions
[9] = system: enzyme cocktails (pepsin, pancreatin, pronase, esterase, Omnigest, VitälZym); experiment: Stability under treatment with commercially available enzyme cocktails; type: in vitro ADME; details: 37° C.
Experimental: For acids and bases (Table 59), 10 mg of Lys-Amp was mixed with 2 mL of each stock solution, and the solution was shaken at 20° C. For enzyme treatment (Table 60), 10 mg Lys-Amp was mixed with 5 mL of each enzyme cocktail, and the solution was shaken at 37° C. […] Many of the commercially available reagents also contained various solvents and/or surfactants.
Unless otherwise indicated, solutions were used directly from the container and were combined with neat Lys-Amp solid. Lewis Red Devil® Lye, Enforcer Drain Care® Septic Treatment, and Rid-X® Septic Treatment were prepared as saturated solutions in H2O. Enzymes used were purchased from Sigma and directly dissolved in water (3 mg/mL pepsin, 10 mg/mL pancreatin, 3 mg/mL pronase, 3 mg/mL esterase), while enzyme-containing nutraceuticals such as Omnigest® and VitälZym® were first either crushed or opened (1 tablet or capsule per 5 mL of H2O).

[10] = system: children with ADHD; experiment: Pediatric efficacy trial, ADHD-RS and CPRS, parallel-group, four weeks; details: children 6-12, 30, 50 or 70 mg once daily

## [2H]OC(=O)CC[C@H](N)C(=O)NC(C)Cc1ccccc1 (some centres unmarked) [E-Amp]
[1]
  Percent AUC (bioavailability relative to Amphetamine): 73%
  Percent Cmax (relative to Amphetamine): 95%

## [2H]OC(=O)CC[C@H](NC(=O)[C@@H](N)CCC(=O)O)C(=O)NC(C)Cc1ccccc1 (some centres unmarked) [EE-Amp]
[1]
  Percent AUC (bioavailability relative to Amphetamine): 26%
  Percent Cmax (relative to Amphetamine): 74%

## [2H]OC(=O)CC[C@H](NC(=O)[C@H](CCC(=O)O)NC(=O)[C@@H](N)CCC(=O)O)C(=O)NC(C)Cc1ccccc1 (some centres unmarked) [EEE-Amp]
[1]
  Percent AUC (bioavailability relative to Amphetamine): 69%
  Percent Cmax (relative to Amphetamine): 53%
[2]
  Percent AUC (bioavailability relative to Amphetamine): 10%
  Percent Cmax (relative to Amphetamine): 10%

## [2H]N(C(=O)[C@H](CCC(=O)O)NC(=O)[C@@H](N)CCC(=O)O)[C@@H](Cc1ccccc1)C(=O)NC(C)Cc1ccccc1 (some centres unmarked) [EEF-Amp]
[1]
  Percent AUC (bioavailability relative to Amphetamine): 42%
  Percent Cmax (relative to Amphetamine): 73%
[2]
  Percent AUC (bioavailability relative to Amphetamine): 39%
  Percent Cmax (relative to Amphetamine): 29%

## [2H]N(C(=O)[C@@H](N)Cc1ccccc1)[C@@H](Cc1ccccc1)C(=O)NC(C)Cc1ccccc1 (some centres unmarked) [FF-Amp]
[1]
  Percent AUC (bioavailability relative to Amphetamine): 27%
  Percent Cmax (relative to Amphetamine): 64%

## CC(Cc1ccccc1)NC(=O)CN (centres unmarked) [G-Amp]
[1]
  Percent AUC (bioavailability relative to Amphetamine): 81%
  Percent Cmax (relative to Amphetamine): 78%
[2]
  Percent AUC (bioavailability relative to Amphetamine): 65%
  Percent Cmax (relative to Amphetamine): 53%

## [2H]N(CC(=O)NC(C)Cc1ccccc1)C(=O)CN (centres unmarked) [GG-Amp]
[1]
  Percent AUC (bioavailability relative to Amphetamine): 79%
  Percent Cmax (relative to Amphetamine): 88%
[2]
  Percent AUC (bioavailability relative to Amphetamine): 88%
  Percent Cmax (relative to Amphetamine): 85%

## CC(Cc1ccccc1)NC(=O)CNC(=O)CNC(=O)CN (centres unmarked) [Gly3-Amp, 2-amino-N-({[(1-methyl-2-phenyl-ethylcarbornyl)-methyl]-carbornyl}-methyl)-acetamide]
[3]; Baking Powder
  free amphetamine released: 0%
[3]; Baking Soda
  free amphetamine released: 0%
[3]; Tap Water
  free amphetamine released: 0%
[3]; Vinegar
  free amphetamine released: 0%
[3]; water, vinegar, baking powder, baking soda, boiling 20-60 minutes
  Release of free amphetamine in kitchen tests: no detectable free amphetamine

## CC(Cc1ccccc1)NC(=O)C(O)C(O)C(O)C(O)CO (centres unmarked) [Gulonate-Amp]
[4]
  Percent AUC (bioavailability relative to Amphetamine): 3%
  Percent Cmax (relative to Amphetamine): 5%
[1]
  Percent AUC (bioavailability relative to Amphetamine): 1%
  Percent Cmax (relative to Amphetamine): 1%
[2]
  Percent AUC (bioavailability relative to Amphetamine): 0.4%
  Percent Cmax (relative to Amphetamine): 0.5%

## [2H]N[C@@H](Cc1c[nH]cn1)C(=O)NC(C)Cc1ccccc1 (some centres unmarked) [H-Amp]
[1]
  Percent AUC (bioavailability relative to Amphetamine): 16%
  Percent Cmax (relative to Amphetamine): 21%
[2]
  Percent AUC (bioavailability relative to Amphetamine): 22%
  Percent Cmax (relative to Amphetamine): 42%

## [2H]N[C@H](C(=O)NC(C)Cc1ccccc1)[C@@H](C)CC (some centres unmarked) [I-Amp]
[1]
  Percent AUC (bioavailability relative to Amphetamine): 71%
  Percent Cmax (relative to Amphetamine): 52%
[2]
  Percent AUC (bioavailability relative to Amphetamine): 73%
  Percent Cmax (relative to Amphetamine): 97%

## [2H]N(CC(=O)NC(C)Cc1ccccc1)C(=O)[C@@H](N)CCCCN (some centres unmarked) [KG-Amp]
[1]
  Percent AUC (bioavailability relative to Amphetamine): 69%
  Percent Cmax (relative to Amphetamine): 71%
[2]
  Percent AUC (bioavailability relative to Amphetamine): 13%
  Percent Cmax (relative to Amphetamine): 12%

## [2H]N[C@@H](CC(C)C)C(=O)NC(C)Cc1ccccc1 (stereo partly drawn) [L-Amp]
[1]
  Percent AUC (bioavailability relative to Amphetamine): 65%
  Percent Cmax (relative to Amphetamine): 81%

## [2H]OC(=O)CC[C@H](NC(=O)[C@@H](N)CC(C)C)C(=O)NC(C)Cc1ccccc1 (some centres unmarked) [LE-Amp]
[1]
  Percent AUC (bioavailability relative to Amphetamine): 40%
  Percent Cmax (relative to Amphetamine): 28%
[2]
  Percent AUC (bioavailability relative to Amphetamine): 6%
  Percent Cmax (relative to Amphetamine): 6%

## [2H]N1CCC[C@H]1C(=O)NC(C)Cc1ccccc1 (some centres unmarked) [P-Amp]
[1]
  Percent AUC (bioavailability relative to Amphetamine): 6%
  Percent Cmax (relative to Amphetamine): 3%
[2]
  Percent AUC (bioavailability relative to Amphetamine): 2%
  Percent Cmax (relative to Amphetamine): 2%

## CC(Cc1ccccc1)NC(=O)C1CCCN1C(=O)C1CCCN1 (centres unmarked) [PP-Amp]
[1]
  Percent AUC (bioavailability relative to Amphetamine): 61%
  Percent Cmax (relative to Amphetamine): 80%
[2]
  Percent AUC (bioavailability relative to Amphetamine): 47%
  Percent Cmax (relative to Amphetamine): 43%

## CC(Cc1ccccc1)NC(=O)C(N)Cc1ccccc1 (centres unmarked) [Phe-Amp, 2-amino-3-phenylpropanoic acid-(1-methyl-2-phenylethyl)-amide]
[2]; rat, parenteral routes
  Bioavailability by parenteral routes of administration: little or no decrease

## [2H]N[C@@H](Cc1ccc(O)cc1)C(=O)NC(C)Cc1ccccc1 (some centres unmarked) [Y-Amp]
[1]
  Percent AUC (bioavailability relative to Amphetamine): 25%
  Percent Cmax (relative to Amphetamine): 20%
[2]
  Percent AUC (bioavailability relative to Amphetamine): 21%
  Percent Cmax (relative to Amphetamine): 20%

## C[C@H](N)Cc1ccccc1 [d-amphetamine sulfate]
[5]; 12 mg/kg
  F of d-amphetamine: 101%
[5]; 60 mg/kg
  F of d-amphetamine: 223%
[6]
  Oral LD50: 96.8 mg/kg

## L-lysine-d-amphetamine diHCl
[7]
  Observable signs of toxicity, Groups 4-6: increased motor activity within two hours post-dose
[7]; Days 1-7
  Observable signs of toxicity, Groups 1-3: no observable signs

## L-lysine-d-amphetamine dimesylate
[8]; 3M sodium hydroxide
  Maximum d-amphetamine release: 25.4%
[8]; all other basic conditions
  d-amphetamine release: less than 3%
[9]; Cellfood ®, 1 h
  d-amphetamine released: 0 w.t. % d-amphetamine
[9]; Cellfood ®, 24 h
  d-amphetamine released: 0 w.t. % d-amphetamine
[9]; Drano ® Max with Bacteria, 1 h
  d-amphetamine released: 0 w.t. % d-amphetamine
[9]; Drano ® Max with Bacteria, 24 h
  d-amphetamine released: 0 w.t. % d-amphetamine
[9]; Enforcer ® Septic, 1 h
  d-amphetamine released: 0 w.t. % d-amphetamine
[9]; Enforcer ® Septic, 24 h
  d-amphetamine released: 0 w.t. % d-amphetamine
[9]; Esterase 3 mg/mL, 1 h
  d-amphetamine released: 0 w.t. % d-amphetamine
[9]; Esterase 3 mg/mL, 24 h
  d-amphetamine released: 19 w.t. % d-amphetamine
[9]; Omnigest ®, 1 h
  d-amphetamine released: 0 w.t. % d-amphetamine
[9]; Omnigest ®, 24 h
  d-amphetamine released: 0 w.t. % d-amphetamine
[9]; Pancreatin 10 mg/mL, 1 h
  d-amphetamine released: 0 w.t. % d-amphetamine
[9]; Pancreatin 10 mg/mL, 24 h
  d-amphetamine released: 0 w.t. % d-amphetamine
[9]; Pepsin 3 mg/mL, 1 h
  d-amphetamine released: 0 w.t. % d-amphetamine
[9]; Pepsin 3 mg/mL, 24 h
  d-amphetamine released: 0 w.t. % d-amphetamine
[9]; Pronase 3 mg/mL, 1 h
  d-amphetamine released: 0 w.t. % d-amphetamine
[9]; Pronase 3 mg/mL, 24 h
  d-amphetamine released: 24 w.t. % d-amphetamine
[9]; Rid-X ® Septic, 1 h
  d-amphetamine released: 0 w.t. % d-amphetamine
[9]; Rid-X ® Septic, 24 h
  d-amphetamine released: 0 w.t. % d-amphetamine
[9]; VitälZym ®, 1 h
  d-amphetamine released: 0 w.t. % d-amphetamine
[9]; VitälZym ®, 24 h
  d-amphetamine released: 0 w.t. % d-amphetamine
[10]
  Signs and symptoms of ADHD (ADHD-RS, CPRS) compared to placebo: Significant improvements
